Reference: patent US8742141B2, “Inhibition and treatment of prostate cancer metastasis” (Northwestern University, priority 2008, dated 2014)
Entries after “also recorded” stand apart in the source; their conditions may differ.

Tests used:
PC3-M or PC3 cells = experiment: Cell invasion assay, compounds of Example 7; assay type: cell-based, human; conditions: 10 μM of compound
Protocol: (§1) Assays were conducted using methods as described in Craft et al. (2008, Mol. Pharmocol., 73(1):235-242; herein incorporated by reference in its entirety).
(§2) The anti-metastatic activity of the compounds of Example 7 was tested using the procedure of Example 2. Specifically, PC3-M or PC3 cells were treated with 10 μM of compound (for invasion, FIG. 9) or a range of concentrations (for growth inhibition, FIG. 10). For invasion, values are the mean±SD number of invading cells, as a percent of untreated controls, from N=3 separate assays run at different times (each assay was in replicates of N=4). Cell viability was determined by MTT assay as recited in Kyle et al., Mol. Pharmacol, 51(2):193-200 (1997); herein incorporated in its entirety. Values are the mean±SD of N=2 separate assays run at different times (N=3 for each assay), and are the percent of untreated controls.

PC3-M cells = experiment: Cell invasion assay, compounds 21-48; assay type: cell-based, human; conditions: 10 μM of compound
Protocol: as §1
as §2, with “of” for “of the”, “21-26” for “of Example 7”, “PC3-M” for “PC3-M or PC3”, “11)” for “9)”, “12).” for “10).”, “incorporated by reference” for “incorporated”
as §2, with “of” for “of the”, “31-38” for “of Example 7”, “PC3-M” for “PC3-M or PC3”, “13)” for “9)”, “14).” for “10).”, “incorporated by reference” for “incorporated”
as §2, with “of” for “of the”, “41-48” for “of Example 7”, “PC3-M” for “PC3-M or PC3”, “15)” for “9)”, “16).” for “10).”, “incorporated by reference” for “incorporated”

[1] = tested on: PC3-M, PC3, 1542CPTX, 1532CPTX, 1532NPTX, and 1542NPTX cells; experiment: Cell invasion assay, invasion time extended to 16 hours; assay type: cell-based, human; conditions: invasion assay time 16 hours
Protocol: as §1
Expanded studies were performed on compound 46. Cell invasion assays conducted using the procedure of Example 2 utilized control, genistein-treated, and compound 46-treated PC3-M, PC3, 1542CPTX, 1532CPTX, 1532NPTX, and 1542NPTX cells (FIG. 17, FIG. 28). This allowed assay conditions to be adjusted so as to optimize assessment of differences between these three treatment conditions. In particular, the invasion assay time was extended from 14 to 16 hours.

[2] = tested on: PC3, PC3-M, 1532CPTX, 1542CPTX, 1532NPTX, and 1542NPTX; experiment: Growth inhibition MTT assay in different cell lines; assay type: cell-based, human; conditions: range of concentrations
Protocol: Growth inhibition assays were performed with different cell lines using the procedure of Example 2. Specifically, cell lines (PC3, PC3-M, 1532CPTX, 1542CPTX, 1532NPTX, and 1542NPTX) were treated with a range of concentrations of compound 46 (FIG. 18, FIG. 29). Cell viability was determined by MTT assay as recited in Kyle et al., Mol. Pharmacol, 51(2):193-200 (1997); herein incorporated by reference in its entirety. Data are the mean±SEM of a single experiment, performed in triplicate.

[3] = tested on: Estrogen receptor (ER) positive human MCF-7 breast cancer cells; experiment: Expression of estrogen responsive genes (TFF1, PGR, CPSD) in MCF-7 cells; assay type: cell-based; conditions: 0.1-50 μM, 24 hours, hormone-free conditions
Protocol: (§3) The genes were: TFF1 (trefoil factor 1; also known as pS2), PGR (progesterone receptor), and CPSD (cathepsin D). Gene expression was measured by isolating RNA, and performing real time quantitative reverse transcription/polymerase chain reaction (qRT/PCR), using exon spanning primers (purchased from Applied Biosystems). The expression of GAPDH was also measured, and used to normalize the expression of ER responsive genes. Data below are the mean±SD of a single experiment, performed in duplicate. […] Additionally, the ability of compound 46 to activate an ER promoter-luciferase reporter vector construct after transient transfection of the human ER positive breast cancer cell line, MCF-7, was evaluated (FIG. 31). […] “No associated control cells” were transfected with an identical vector construct that lacked the estrogen response element, i.e., noERE.

[4] = tested on: ER promoter-luciferase reporter vector construct; experiment: ER promoter-luciferase reporter assay in MCF-7 cells; assay type: cell-based, human; conditions: 10 μM
Protocol: as §3

[5] = Short-term animal toxicity study, oral gavage; assay type: in vivo; conditions: 0.15, 1.5, 15, or 150 mg/kg body weight/day, 5 days
Protocol: Six week old athymic male mice were dosed by oral gavage with 0.15, 1.5, 15, or 150 mg KBU2046/kg body weight/day, or vehicle control, daily for 5 days. There were 3 mice per dose level.

[6] = Stability after radiation and autoclaving; assay type: physicochemical
Protocol: Successful scale-up of synthesis of compound 46 was conducted according to the methods of Examples 7, 11, and the Detailed Description, yielding 10 g of material that is >98% pure (by HPLC).

[7] = tested on: PC3-M human prostate cancer cells; experiment: 3-day growth inhibition MTT assay; assay type: cell-based; conditions: range of concentrations
Protocol: PC3-M human prostate cancer cells were treated with different concentrations of the indicated compound, and then MTT reduction as an indicator of cell viability was measured according to the method of Example 9.
The anti-metastatic activity of compounds 21-26 was tested using the procedure of Example 2. Specifically, PC3-M cells were treated with 10 μM of compound (for invasion, FIG. 11) or a range of concentrations (for growth inhibition, FIG. 12). For invasion, values are the mean±SD number of invading cells, as a percent of untreated controls, from N=3 separate assays run at different times (each assay was in replicates of N=4). Cell viability was determined by MTT assay as recited in Kyle et al., Mol. Pharmacol, 51(2):193-200 (1997); herein incorporated by reference in its entirety. […]
The anti-metastatic activity of compounds 31-38 was tested using the procedure of Example 2. […] Cell viability was determined by MTT assay as recited in Kyle et al., Mol. Pharmacol, 51(2):193-200 (1997); herein incorporated by reference in its entirety. […]
The anti-metastatic activity of compounds 41-48 was tested using the procedure of Example 2. […] Cell viability was determined by MTT assay as recited in Kyle et al., Mol. Pharmacol, 51(2):193-200 (1997); herein incorporated by reference in its entirety. […]

O=c1c(-c2ccc(O)cc2)coc2cc(O)cc(O)c12 [Compound 8]
inhibition of cell invasion (anti-metastatic activity) (PC3-M or PC3 cells): did not show any significant inhibition of cell invasion

O=c1c(-c2ccccc2)coc2ccccc12 [Compound 1]
inhibition of cell invasion (anti-metastatic activity) (PC3-M or PC3 cells): did not show any significant inhibition of cell invasion

CC(=O)Oc1ccc(-c2cc3c(OC(C)=O)cc(OC(C)=O)cc3oc2=O)cc1 [Compound 24]
anti-invasion efficacy (PC3-M cells): loss of activity

O=C1c2ccccc2OCC1c1ccc(F)cc1 (centres unmarked) [Compound 46, 4′-fluoroisoflavanone]
anti-invasion efficacy compared to genistein [1]: greater efficacy than genistein; also recorded: greater anti-invasion efficacy compared to genistein | toxicity in growth inhibition assay (MTT cell viability) [2]: less toxic than genistein, and in fact shows no toxicity; also recorded: no cell toxicity | estrogenic activity (expression of estrogen responsive genes) [3]: no estrogenic activity | luciferase activity [4]: no effect | toxicity [5]: no evidence of toxicity | compound stability ([6]; after exposure to 40 kGy of radiation): stability was documented | compound stability ([6]; after exposure to high temperatures and pressures (autoclaving)): stability was documented

O=c1c(-c2cccc(Cl)c2)coc2ccccc12 [Compound 38, 3′-chloroisoflavone]
anti-invasion efficacy (PC3-M cells): anti-invasive | cell growth inhibition (MTT) [7]: growth inhibitory effects

O=c1oc2cc(O)cc(O)c2cc1-c1ccc(O)cc1 [Compound 25]
anti-invasion efficacy (PC3-M cells): loss of activity

O=c1oc2cc(O)cc(O)c2cc1-c1ccc(O)cc1 [Compound 17]
inhibition of cell invasion (anti-metastatic activity) (PC3-M or PC3 cells): did not show any significant inhibition of cell invasion

O=C1c2c(O)cc(O)cc2OCC1c1ccc(O)cc1 (centres unmarked) [Compound 22, 5,7,4′-trihydroxyisoflavanone]
anti-invasion efficacy (PC3-M cells): retain anti-invasion efficacy | cell growth inhibition (MTT) [7]: little-to-no effect upon cell growth inhibition

COc1ccc(-c2cc3c(OC)cc(OC)cc3oc2=O)cc1 [Compound 23]
anti-invasion efficacy (PC3-M cells): loss of activity
